In patent US20230056360A1, “BLOOD-BRAIN-BARRIER SYSTEMS” (priority 2020, published 2023):
“Also recorded” adds a separate entry of the source.

Tested on: iBMECs
Assay: blood-to-brain permeability of fluorescent molecules across iBMEC monolayers on transwells, monoculture or brain region-specific NVUs
Conditions: iBMECs alone or co-cultured over primary rat neural cultures (cortex, striatum, hippocampus, cerebellum, spinal cord); one-way ANOVA, Tukey; result in words
Method: In order to obtain region-specific primary neural cultures, E18 rat embryos were extracted from a pregnant female. Embryos were dissected and several regions of the CNS were separated including cortex, striatum, hippocampus, cerebellum and spinal cord. The regions were enzymatically dissociated into single cells before seeded pre-coated MEA plates and petri dishes, in which they were cultured in Neurobasal medium (Sigma) for two weeks. In order to validate the various primary cell cultures, the cells were stained for the neuronal marker βIII-tubulin and the glial marker GFAP (FIG. 2).
iPSCs were differentiated into iBMECs as previously described. On Day 8 of differentiation, cells were enzymatically dissociated into single cell suspensions and seeded on precoated transwell inserts. 24 hours post seeding, iBMEC inserts were placed on top of primary neural cultures derived from the different CNS regions (FIG. 3) where they were cultured for three additional days.
Fluorescence was measured using a plate reader and calculated into concentrations using a calibration curve with known concentrations. Next, the inventors plotted the chart and extracted the slope for each transwell. Slopes from empty transwells were subtracted from the obtained value and the results were used to calculate the permeability, expressed as 10-5 cm/min.

Row | Structure (SMILES) | differences in permeability between iBMEC monoculture and NVUs of different brain regions
1 | O=[N+]([O-])c1ccc(N[C@H]2C(O)O[C@H](CO)[C@@H](O)[C@@H]2O)c2nonc12 (stereo partly drawn) [2-NDBG, 2-[N-(7-nitrobenz-2-oxa-1,3-diazol-4-yl)amino]-2-deoxy-D-glucose] | not different between the NVUs
2 | O=C([O-])c1ccccc1-c1c2ccc(=O)cc-2oc2cc([O-])ccc12.[Na+].[Na+] [sodium fluorescein] | significantly more permeable in the monoculture compared to the NVUs of the cortex, cerebellum, striatum and hippocampus; also recorded: significance differences in permeability were also observed between spinal cord and other NVUs
